# Measurements reported in patent US20030099632A1, “Method for preparing a purified matrix metalloproteinase” (priority 2001, published 2003).
# Biological target: T1, MMP-13CD (Homo sapiens, UniProt P45452)
# T1 construct: expression of MMP-13 catalytic domain (“MMP-13CD”) in E. coli typically produces a pro form of the enzyme; A-S- dipeptide left from the M-A-S- expression leader (mPro-MMP-13CD); removed by autolysis (N, cleaved yes); made in house
# Assay: Autolysis of mPro-MMP-13CD / MMP-13CD after addition of a zinc ligand, followed by MALDI-MS
# Type: biochemical
# Details: added to modified pro form A-S-MMP-13CD
# Description: A 1 mL aliquot of the solution obtained in Preparation 3 was thawed and purified by addition of 100 μL of hydroxamic acid to give a solution of purified MMP-13CD, and the solution was stored at 4° C.
# Matrix-Assisted Laser Desorption/Ionization Mass Spectrometry (“MALDI”): MALDI mass spectra were acquired on a Bruker Daltonics, Inc (Billerika, Mass.) Reflex-III time-of-flight mass spectrometer operating in linear mode. The instrument has a 3.3-meter flight tube and an adjustable accelerating voltage up to 23 kV in Delayed Extraction mode. Radiation from a Laser Science, Inc. (Newton, Mass.) nitrogen laser (337 nm, 3-nanosecond pulse width) was used to desorb ions from the target. All linear delayed-extraction experiments were performed using an operating voltage of 23.0 kV, an extraction grid voltage of 20.0 kV, a focus voltage of 16.8 kV, and a lens voltage of 9.001 kV. Twenty-five to one hundred-fifty laser shots were averaged for each spectrum with a 5-point Savitsky-Golay smooth applied. […]
# Samples of protein were then analyzed by MALDI-MS every day for 5 days. […] The flash-frozen material was stored, then thawed and immediately analyzed. […] The relative peak heights were calculated by dividing the a.i. value for MMP-13CD at m/z 18923 by the a.i. value for the particular impurity. […]
smiles,measurement,value
CC(=O)NO [acetohydroxamic acid],effect on autolysis of MMP-13CD,stabilizes the resulting mature MMP-13CD itself against autolysis
